Laboratory results: patent US4774248A, “Methods of treating depression and depressive states using 5-phenyl-1,4,5,6-tetrahydropyrimidine derivatives” (priority 1985, dated 1988)
“Also recorded” adds a separate entry of the source.

Legend:
mice [1] = assay: Overall behavior and reactivities in mice; assay type: in vivo; details: i.p.
Method in brief: (§1)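 Male mice (20 ml/kg) and male rats (5 ml/kg) dosed intraperitoneally with compound in distilled water.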

[2] = tested on: depressions and depressive states; assay: Clinical trials in depression and depressive states; assay type: in vivo, human; details: daily oral administration to adults
Procedure: The clinical trials which have been undertaken have made it possible to determine that the daily dose to be administered orally to adults, in the treatment of depressions and depressive states, is generally between 3 and 120 mg for the products of the formulae Ia and Ib according to the invention.

mice [3] = assay: Asphyxiant anoxia caused by gallamine triiodoethylate; assay type: in vivo; details: i.p., gallamine triiodoethylate 32 mg/kg
Procedure: (§2) The results of toxicological and neuropsychopharmacological tests which were carried out with the products according to the invention have been summarized below. In these tests, solutions of the said products in distilled water were administered intraperitoneally in a volume of 20 ml/kg to male mice and in a volume of 5 ml/kg to male rats.
Groups of 10 mice receive CRL 41 378 30 minutes before the intraperitoneal administration of 32 mg/kg of gallamine triiodoethylate (reference curarizing agent).

rats = assay: Overall behavior and reactivities in rats; assay type: in vivo; details: i.p.
Method in brief: as §1

male mice = assay: Acute toxicity, intraperitoneal (LD0, LD30, LD60, LD100); assay type: in vivo
Procedure: as §2

mice [4] = assay: Four plate test; assay type: in vivo; details: i.p.
Procedure: as §2
(§3) The test is performed on groups of 10 mice 30 minutes after the administration of CRL 41 378.

[5] = tested on: hypothermia, righting behavior and stereotypies induced by apomorphine; assay: Interaction with apomorphine in mice; assay type: in vivo
Method in brief: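 Male mice, groups of 6, given test compound intraperitoneally in distilled water (20 ml/kg) 30 min before subcutaneous apomorphine at 1 or 16 mg/kg. Hypothermia, righting behaviour and stereotypies scored.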

mice [6] = assay: Electric shock; assay type: in vivo; details: i.p.
Procedure: as §2, §3

[7] = tested on: hypothermia induced by apomorphine; assay: Interaction with apomorphine by gastric administration; assay type: in vivo; details: Mus musculus, male mice, apomorphine 16 mg/kg s.c., read-out: dose as from which the hypothermia induced by apomorphine is opposed
Procedure: Each test product is administered gastrically to male mice, in a volume of 20 ml/kg, 0.50 h before the subcutaneous injection of 16 mg/kg of apomorphine.

pregnant rabbits = assay: Teratogenic effects on pregnant rabbits; assay type: in vivo
mice [8] = assay: Motility reduced by habituation to the enclosure; assay type: in vivo; details: i.p.
Procedure: as §2
After they have stayed in the actimeters for 18 hours, the mice (6 per dose, 12 control animals) receive CRL 41 378. They are immediately returned to their respective enclosures and, half an hour later, their motility is recorded for 30 minutes.

[9] = tested on: hypothermia and ptosis induced by reserpine; assay: Interaction with reserpine; assay type: in vivo; details: mice, i.p.
Method in brief: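 Reserpine 2.5 mg/kg i.p. given to male mice in groups of 12; test compound dissolved in distilled water and given i.p. (20 ml/kg) four hours later.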

[10] = tested on: stereotypies induced by apomorphine; assay: Interaction with apomorphine in rats; assay type: in vivo; details: i.p., apomorphine 0.5 mg/kg s.c., hydrochloride
Procedure: as §2
CRL 41 378 is administered to groups of 12 rats 0.5 h before the subcutaneous injection of 0.5 mg/kg of apomorphine.

[11] = tested on: central nervous system (CNS); assay: Neuropsychopharmacological profile (conclusions of the tests); assay type: in vivo, mice and rats
Procedure: as §2

mice [12] = assay: Intergroup aggressiveness; assay type: in vivo
Method in brief: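 Male mice housed 3 weeks per group in cage halves split by an opaque partition; groups of 3 given CRL 41 378 i.p. in distilled water.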

anesthetized dogs [13] = assay: Cardiovascular study in anesthetized dogs; assay type: in vivo; details: route not specified
mice [14] = assay: Traction; assay type: in vivo; details: i.p.
Procedure: as §2, §3

mice [15] = assay: Spontaneous motility (actimeter); assay type: in vivo; details: i.p., hydrochloride
Method in brief: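 Male mice (6 per dose, 12 controls) received CRL 41 378 in distilled water i.p. at 20 ml/kg; 0.5 h later they were placed in an actimeter and motility was recorded for 30 minutes.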

[16] = tested on: sleep induced by barbital; assay: Interaction with barbital; assay type: in vivo; details: mice, i.p.; barbital 220 mg/kg
Procedure: as §2
Half an hour after the administration of CRL 41 378, groups of 10 mice receive an intraperitoneal injection of barbital (220 mg/kg).

anesthetized dogs [17] = assay: Cardiovascular study in anesthetized dogs; assay type: in vivo
Procedure: Groups of 2 adult dogs (each weighing 10 to 18 kg), anesthetized with nembutal, receive each test product (i) by intraduodenal administration at successive doses of 0.1 mg/kg, 0.5 mg/kg, 1 mg/kg, 2.5 mg/kg, 5 mg/kb, 10 mg/kg and 20 mg/kg, and then (ii) if appropriate, by intravenous administration at a dose of 10 mg/kg. The effects of 10 μg/kg of isoprenaline and/or 2 μg/kg of norepinephrine after the intraduodenal administration of a cumulative dose of 39.1 mg/kg are also assessed.
The following are measured: the total arterial blood pressure, the diastolic arterial blood pressure, the heart rate, the blood flows through the femoral and cerebral arteries and saphenous veins, the rectal temperature, the skin temperature and the pressure of the gases (essentially O2) dissolved in the arterial blood.

[18] = reserpine 2.5 mg/kg, hydrochloride

Compound: CC(=O)N1C=NCC(c2ccccc2)C1.Cl (stereo not shown) [CRL 41 378, 1-acetyl-5-phenyl-1,4,5,6-tetrahydropyrimidine hydrochloride]
- overall behavior and reactivities (mice [1]; 1 mg/kg): no distinct modification of the behavior and reactivities compared with the control animals
- overall behavior and reactivities (mice [1]; 4 mg/kg): moderate mydriasis for 3 h, the maximum intensity being reached 1 h after administration
- overall behavior and reactivities (mice [1]; 16 mg/kg, hydrochloride): moderate salivation 1 h after administration; also recorded: moderate hypothermia; also recorded: moderate mydriasis 1 h after administration
- overall behavior and reactivities (mice [1]; 64 mg/kg, hydrochloride): sedation for 3 h; also recorded: a decrease in the breathing rate appearing between T+0.5 h and T+1 h after administration; also recorded: moderate hypothermia; also recorded: an increase in the reactivity to touch and vasodilation of the paws for 0.5 h; also recorded: salivation appearing between T+1 h and T+2 h after administration; also recorded: mydriasis for 3 h
- results in human therapy (depression) [2]: excellent results
- time taken for convulsions and death / lethal effects of gallamine triiodoethylate (mice [3]): at the highest dose used (64 mg/kg), CRL 41 378 causes a moderate decrease in the time taken for convulsions and death to occur
- overall behavior and reactivities (rats; 0.5 mg/kg): moderate mydriasis for 2 h, the maximum intensity being reached 0.5 h after administration
- overall behavior and reactivities (rats; 2 mg/kg): mydriasis for 3 h, the maximum intensity also being reached 0.5 h after administration
- overall behavior and reactivities (rats; 32 mg/kg, hydrochloride): a decrease in the breathing rate and muscle tonus for 1 h; also recorded: exophthalmos for 1 h; also recorded: piloerection for 2 h; also recorded: salivation appearing 0.5 h after administration; also recorded: vasodilation of the paws and snout for 0.5 h; also recorded: mydriasis for 2 h, the maximum intensity being reached 0.5 h after administration
- toxic signs in the animals treated (male mice; 256 mg/kg i.p.): all the animals treated exhibit dyspnea, substantial salivation and convulsions 10 minutes after administration
- LD0 (maximum non-lethal dose) (male mice; intraperitoneal): greater than 256 mg/kg
- number of punished passes (mice [4]): does not modify the number of punished passes
- minimal effective dose ([5]; Mus musculus, ip, read-out: dose as from which the hypothermia induced by apomorphine is antagonized): ≥ 0.5 mg/kg
- action on righting behavior and stereotypies due to apomorphine ([5]; i.p.): practically no modification of the righting behavior and stereotypies due to apomorphine
- action on hypothermia induced by apomorphine ([5]; i.p., hydrochloride): antagonizes the hypothermia induced by apomorphine; also recorded: antagonism of the hypothermia induced by apomorphine, reserpine and oxotremorine in mice
- convulsant effects of electric shock (mice [6]): without modifying the convulsant effects
- lethal effects of electric shock (mice [6]): At the two highest doses studied (16 and especially 64 mg/kg), CRL 41 378 strongly aggravates the lethal effects of electric shock
- minimal effective dose [7]: ≥ 0.5 mg/kg
- teratogenic effects (pregnant rabbits): devoid of harmful teratogenic effects on pregnant rabbits
- resumption in the motor activity of mice accustomed to their enclosure (mice [8]): does not cause a resumption in the motor activity of mice accustomed to their enclosure
- minimal effective dose ([9]; Mus musculus, ip, 24 h after administration, read-out: dose as from which the ptosis induced by reserpine is moderately decreased): ≥ 0.5 mg/kg
- action on hypothermia induced by reserpine [9, 18]: at doses of 0.5 mg/kg to 4 mg/kg, CRL 41 378 antagonizes the hypothermia induced by reserpine; also recorded: this effect tends to decrease to nothing at a dose of 16 mg/kg; also recorded: the highest dose used (64 mg/kg) being inactive towards the hypothermia induced by reserpine; also recorded: antagonism of the hypothermia induced by apomorphine, reserpine and oxotremorine in mice
- action on ptosis induced by reserpine [9, 18]: moderate decrease in the ptosis induced by reserpine 24 h after administration; also recorded: absence of distinct antagonism of the ptosis induced by reserpine
- action on stereotypies induced by apomorphine [10]: at the two highest doses used (8 and 32 mg/kg), CRL 41 378 seems to cause a moderate decrease in the stereotypies induced by apomorphine; also recorded: moderate antagonism of the stereotyped movements induced by apomorphine in rats
- lethal effects of the various convulsants studied ([11]; electric shock, hypobaric hypoxia, asphyxiant anoxia): aggravates the lethal effects of the various convulsants studied (electric shock, hypobaric hypoxia, asphyxiant anoxia)
- antidepressant effects ([11]; i.p.): antidepressant effects appearing as from the lowest doses
- peripheral anticholinergic activity ([11]; i.p.): absence of peripheral anticholinergic activity
- stimulant effects ([11]; i.p.): absence of stimulant effects on the CNS
- peripheral α-adrenergic stimulant effects ([11]; i.p., hydrochloride): peripheral α-adrenergic stimulant effects appearing at high doses; also recorded: an α1 stimulation component represented by salivation and mydriasis (in mice and rats) and piloerection (in rats); also recorded: moderate hyperthermia in mice; also recorded: peripheral vasodilation (tail, paws and snout) in mice and rats
- sedative effects ([11]; i.p., hydrochloride): sedative effects appearing at high doses; also recorded: sedation in mice
- overall neuropsychopharmacological profile ([11]; summary, hydrochloride): an antidepressant exhibiting sedative effects at high doses; also recorded: resembles β-adrenergic stimulants
- minimal effective dose (mice [12]; Mus musculus, ip, read-out: dose as from which the intergroup aggressiveness is decreased): ≥ 0.5 mg/kg
- intergroup aggressiveness (number of fights) (mice [12]; mice, i.p., hydrochloride): decreases the intergroup aggressiveness as from a dose of 0.5 mg/kg but especially at doses of 2 mg/kg, 4 mg/kg and 16 mg/kg; also recorded: a decrease in the intergroup aggressiveness of mice (at doses which do not decrease the spontaneous motor activity)
- blood flows through the femoral and vertebral arteries (anesthetized dogs [13]): decreases the blood flows through the femoral and vertebral arteries
- motor incoordination / incapacity (mice [14]): does not cause motor incoordination
- spontaneous motor activity (mice [15]): at a dose of 16 mg/kg and especially at a dose of 64 mg/kg, CRL 41 378 decreases the spontaneous motor activity of the mice; also recorded: a substantial decrease in the spontaneous motor activity of mice
- duration of the sleep induced by barbital [16]: practically no modification of the duration of the sleep induced by barbital
- rectal temperature (anesthetized dogs [17]): increases the rectal temperature
- skin temperature (anesthetized dogs [17]): does not cause a distinct modification of the skin temperature
- arterial blood pressure (anesthetized dogs [17]; intraduodenal): no effect on the arterial blood pressure by intraduodenal administration
- arterial blood pressure (anesthetized dogs [17]; intravenous): hypotensive by intravenous administration
- effects of isoprenaline (anesthetized dogs [17]; isoprenaline 10 μg/kg): decreases the effects of isoprenaline on the heart rate
- hypertension induced by norepinephrine (anesthetized dogs [17]; norepinephrine 2 μg/kg): decreases the hypertension induced by norepinephrine
